In patent US7622469B2, “2,4-diamino-1,3,5-triazine derivatives” (Hamari Chemicals, Ltd., priority 2002, dated 2009):
Values after ≈ are worked out from the molar mass of the structure shown.

Columns and labels:
Test in all cases: Antibacterial activity test (MIC)
Settings in all cases: Mueller-Hinton Broth, 37° C., 20 to 24 hours
S. aureus 209PJC = type: cell-based
Method: (§1) Regarding compounds obtained in respective Working Examples, in order to investigate antibacterial activity, minimal inhibitory concentration (MIC) was determined according to a standard method of Japanese Society of Chemotherapy.
(§2) As a test bacterium, nine kinds of S. aureus 209PJC, MRSA 97-115, MRSA KM 97-53, MRSA KM97-108, VRE 49, E. coli NIHJ JC-2, P. aeruginosa PAO-1, P. aeruginosa No. 12, P. aeruginosa KM97-5 were used and, as a medium, Mueller-Hinton Broth (DIFCO) was used. One platinum loop of a test bacterium was inoculated into 20 ml of a medium, and static culture was carried out at 37° C. for 16 to 20 hours, and then each bacterium species was diluted with a sterilized physiological saline to 10^5/ml, which was used as a test bacterium solution.
(§3) Then, each compound was dissolved in methanol, subjected to ½ stepwise dilution with a medium to prepare a medium for measuring sensitivity, and each 2 ml was dispensed into a test tube. A compound concentration in a medium was adjusted to 100 μg/ml and its 2^n-fold (n=−10 to 1).
(§4) Numerical values in Tables represent MIC expressed in μg/ml unit.

P. aeruginosa PAO-1 = type: cell-based
Method: as §1, §2, §3, §4

E. coli NIHJ JC-2 = type: cell-based
Method: as §1, §2, §3, §4

MRSA 97-115 = type: cell-based, methicillin-resistant Staphylococcus aureus
Method: as §1, §2, §3, §4

| minimal inhibitory concentration (MIC) (S. aureus 209PJC) [µg/mL] | minimal inhibitory concentration (MIC) (P. aeruginosa PAO-1) [µg/mL] | minimal inhibitory concentration (MIC) (E. coli NIHJ JC-2) [µg/mL] | minimal inhibitory concentration (MIC) (MRSA 97-115) [µg/mL] | Compound |
| --- | --- | --- | --- | --- |
| 0.4 | 50 | 50 | 1.6 | CCCCCCCCCCCCC1N=C(N)N=C(N)N1CCc1ccc(OC)cc1.Cl (racemic) [15(2)] |
| 0.4 | 50 | 25 | 1.6 | CCCCCCCCCCCCC1N=C(N)NC(NCc2ccc(OC)cc2)=N1.Cl (racemic) [16(1)] |
| 0.4 | 25 | 25 | 1.6 | CCCCCCCCCCCCC1N=C(N)N=C(N)N1Cc1ccc(OC)cc1.Cl (racemic) [16(2)] |
| 0.4 | 25 | 6.3 | 0.8 | CCCCCCCCCCC1N=C(N)NC(NCc2ccc(C(F)(F)F)cc2)=N1.Cl (racemic) [18(1)] |
| 0.8 | 12.5 | 6.3 | 1.6 | CCCCCCCCCCC1N=C(N)N=C(N)N1Cc1ccc(C(F)(F)F)cc1.Cl (racemic) [18(2)] |
| 0.8 | 25 | 25 | 3.1 | CCCCCCCCCCCC1N=C(N)N=C(N)N1c1ccc(F)cc1F.Cl (racemic) [compound 35] |
| 0.8 | >100 | >100 | 1.6 | CCCCCCCCCCCC1N=C(N)NC(Nc2ccc(F)cc2F)=N1.Cl (racemic) [compound 36] |
| 0.2 | 12.5 | 1.6 | 0.8 | CCCCCCCCCCCCC1N=C(N)NC(NCc2ccccc2)=N1.Cl (racemic) [compound 44] |
| 0.4 | >100 | >100 | 0.4 | CCCCCCCCCCCC1(C)N=C(N)N=C(N)N1c1ccc(Cl)cc1.Cl (racemic) [compound 45] |
| 0.4 | 25 | 12.5 | 0.4 | CCCCCCCCCCCC1(C)N=C(N)NC(NCc2ccccc2)=N1.Cl (racemic) [compound 46] |
| 0.4 | 25 | 25 | 0.8 | CCCCCCCCNC1=NC(C)(C)N=C(NCc2ccc(Cl)c(Cl)c2)N1.Cl [12(1)] |
| 0.8 | 50 | 50 | 1.6 | CCCCCCCCNC1=NC(C)(C)N(Cc2ccc(Cl)c(Cl)c2)C(N)=N1.Cl [12(2)] |
| 1.6 |  | 25 | 1.6 | CCCCCCCCCCNC1=NC(C)(C)N=C(NCc2ccc(OC)c(OC)c2)N1.Cl [compound 3] |
| 0.5 |  |  | 0.9 | CCCCCCCCCNC1=NC(C)(C)N=C(NCCc2ccc(OC)cc2)N1.Cl [compound 5] |
| 0.9 | 114 | 57 | 1.8 | CCCCCCCCCCCNC1=NC(C)(C)N=C(NCCc2ccc(OC)cc2)N1.Cl [compound 6] |
| 0.2 | 50 | 12.5 | 0.8 | CCCCCCCCCCNC1=NC(C)(C)N=C(NCc2ccc(O)cc2)N1.Cl [compound 7] |

| minimal inhibitory concentration (MIC) (S. aureus 209PJC) [µg/mL] | minimal inhibitory concentration (MIC) (P. aeruginosa PAO-1) [µg/mL] | minimal inhibitory concentration (MIC) (E. coli NIHJ JC-2) [µg/mL] | minimal inhibitory concentration (MIC) (MRSA 97-115) [µg/mL] | Compound |
| --- | --- | --- | --- | --- |
| 0.4 | >100 | 25 | 3.1 | CCCCCCCCNC1=NC(C)(C)N=C(NCc2ccc(O)cc2)N1.Cl [compound 8] |
| 0.4 | >100 | 100 | 1.6 | CCCCCCCCCCCNC1=NC(C)(C)N=C(NCc2ccc(O)cc2)N1.Cl [compound 9] |
| 0.4 | 26 |  | 6.4 | CCCCCCCCCCNC1=NCN=C(NCCc2ccc(OC)cc2)N1.Cl [compound 10] |
| 3.1 | 100 | 50 | 3.1 | CCCCCCCCCCNC1=NC(C)(C)N(c2ccc(OC)cc2)C(N)=N1.Cl [compound 14] |
| 0.8 | 25 | 12.5 | 1.6 | CCCCCCCCC1N=C(N)NC(NCc2ccc(C(F)(F)F)cc2)=N1.Cl (stereo not drawn) [compound 17] |
| 0.4 | 100 | 50 | 3.1 | CCCCCCCCCCCC1N=C(N)NC(NCc2ccc(C(F)(F)F)cc2)=N1.Cl (stereo not drawn) [compound 19] |
| 3.1 | 50 | 50 | 3.1 | CCCCCCCC1N=C(N)N=C(N)N1c1ccc(C(C)(C)C)cc1.Cl (stereo not drawn) [compound 20] |
| 1.5 | 50 | 25 | 3.1 | CCCCCCCCC1N=C(N)N=C(N)N1c1ccc(C(C)(C)C)cc1.Cl (stereo not drawn) [compound 21] |
| 0.8 | >100 | >100 | 1.6 | CCCCCCCCCC1N=C(N)NC(Nc2ccc(C(C)(C)C)cc2)=N1.Cl (stereo not drawn) [compound 23] |
| 1.6 | 50 | 50 | 1.6 | CCCCCCCCC1N=C(N)N=C(N)N1c1cc(C(C)(C)C)ccc1OC.Cl (stereo not drawn) [compound 24] |
| 1.6 (≈ 4.13 µM) |  |  | 1.6 (≈ 4.13 µM) | CCCCCCCCC1N=C(N)NC(Nc2cc(C(C)(C)C)ccc2OC)=N1 (stereo not drawn) [compound 25] |
| 3.1 | 50 | 50 | 6.3 | CCCCCCCCC1N=C(N)N=C(N)N1c1ccc(OC(F)(F)F)cc1.Cl (stereo not drawn) [compound 26] |
| 1.6 | >100 | 25 | 1.6 | CCCCCCCCC1N=C(N)NC(Nc2ccc(OC(F)(F)F)cc2)=N1.Cl (stereo not drawn) [compound 27] |
| 1.6 | 50 | 25 | 3.1 | CCCCCCCCCC1N=C(N)N=C(N)N1c1ccc(OC(F)(F)F)cc1.Cl (stereo not drawn) [compound 28] |
| 0.8 | >100 | >100 | 1.6 | CCCCCCCCCC1N=C(N)NC(Nc2ccc(OC(F)(F)F)cc2)=N1.Cl (stereo not drawn) [compound 29] |

| Compound | minimal inhibitory concentration (MIC) (S. aureus 209PJC) [µg/mL] | minimal inhibitory concentration (MIC) (P. aeruginosa PAO-1) [µg/mL] | minimal inhibitory concentration (MIC) (E. coli NIHJ JC-2) [µg/mL] | minimal inhibitory concentration (MIC) (MRSA 97-115) [µg/mL] |
| --- | --- | --- | --- | --- |
| CCCCCCCCCCNC1=NC(C)(C)N=C(NCc2ccccc2)N1.O=C(O)CC(=O)O [41(2)] | 0.4 | 12.5 | 6.3 | 0.8 |
| CCCCCCCCCCNC1=NC(C)(C)N=C(NCc2ccc(OC)cc2)N1.Cl [Example 1] | 0.4 | 25 | 12.5 | 0.4 |
| CC(=O)O.CCCCCCCCCCNC1=NC(C)(C)N=C(NCc2ccccc2)N1 [compound 50] | 0.4 | 25 |  | 0.4 |
